{"source": "patent US20200079785A1", "about": "“MITOMYCIN C PRODRUG LIPOSOME FORMULATIONS AND USES THEREOF” (MALLINCKRODT LLC, priority 2016, published 2020)", "key": {"[1]": {"tested_on": "HT29 colorectal adenocarcinoma cells", "assay": "In vitro cell kill assay", "format": "cell-based", "procedure": "MCC, MMC prodrugs, and liposomal MMC prodrugs were evaluated in an in vitro cell kill assay. MMC, MMC prodrug, and liposomal MMC prodrug samples were diluted in DPBS as a starting concentration, then serially diluted 1:3 in DPBS (i.e., 70 μL:140 μL). HT29 colorectal adenocarcinoma cells were plated at 100 μL/well in 10% FBS/McCoy's 5a+Pen/Strep media at 5×10^4 cells/mL, based on approximated 24-h doubling time. The plates were incubated at 37° C. overnight to allow the cells to adhere. Next, 10 μL/well treatment dose of MMC, MMC prodrug, or liposomal MMC prodrug was added to the wells, and the plates were incubated at 37° C. […] After a 2-h incubation, the media was removed from the plate and 100 μL/well drug-free media was added before returning to the incubator. After a 24-h incubation, the media was removed from the plate and 100 μL/well drug-free media was added before returning to the incubator. After a 72-h incubation, the media was removed from all of the plates and 100 μL/well drug-free media with 10% Alamar was added to each and returned to the incubator.\nCell viability was measured using WST-1 cell proliferation colorimetric assay or AlamarBlue. 50 mL of 10% WST/McCoy's 5a media was prepared from 5 mL of WST+45 mL of media; 50 mL of 10% Alamar Blue/McCoy's 5a media was prepared from 5 mL of Alamar Blue+45 mL of media. 10% WST/McCoy's 5a media or 10% Alamar Blue/McCoy's 5a was added, and the plates were returned to the incubator to develop, followed by subsequent reading of the fluorescence or absorbance."}, "[2]": {"assay": "Plasma pharmacokinetics of liposomal MMC prodrugs in mice", "format": "in vivo", "from_the_text": "The plasma pharmacokinetics of liposomal MMC prodrugs and free MMC were studied in mice. The liposomal MMC prodrugs are described in Table 6 below.\nAnimals were randomized into five (5) groups, each with 18 mice.\nThree animals were sacrificed at the appropriate time points post injection. Blood samples were taken for pharmacokinetic analysis at each time point (Table 8). Approximately 0.4 mls of blood was collected, via cardiac puncture under isoflurane anesthesia, into a lithium heparin tube and placed on ice. The samples were spun to obtain the plasma, which were stored in microfuge tubes at −80° C."}, "A549 NSCLC xenografts": {"tested_on": "A549 NSCLC xenografts", "assay": "In vivo anti-tumor activity, A549 xenografts", "parameters": "species or system mice", "conditions": "single IV, 5 mg/kg MMC-eq"}, "[3]": {"tested_on": "HT29 colorectal adenocarcinoma xenografts", "procedure": "The anti-tumor activity of liposomal MMC prodrugs were evaluated in female Hsd:Athymic Nude-Foxn1^nu/nu mice (approximately 25 g) implanted subcutaneous with HT29 colorectal adenocarcinoma cells or (1×10^6). Once tumors reached a median size of 200 mm^3, animals were randomized into five (5) groups, normalized by tumor volume. Animals without tumors were not included in this study. […]\nAccording to NCI euthanasia guidelines, mice were removed from the study if they loss 20% of their initial bodyweight or became moribund or if their tumor volume exceeded 2500 mm^3 or if the tumor ulcerated. Tumor volume was measured with the TumorImager system at least twice per week and calculated with the TumorManager software, and mice were weighed twice per week.\nTumor volume was expressed as mean and median and plotted as a function of time. Animals removed from the study due to excess tumor size beyond 2500 mm^3 had values carried forward as 2500 mm^3 in the median plot only. Groups with less than 50% animals remaining were not carried forward for further tumor analysis. The following parameters were determined from tumor size and survival analysis: tumor growth inhibition (TGI), tumor growth delay (TGD), and median survival. The ratio of treated versus control tumor volume (% T/C) was calculated as: […]\nStatistical significance of observed differences between growth curves were evaluated by One-Way ANOVA followed by posthoc test if significant.\nIn another study, mice bearing HT29 colorectal adenocarcinoma xenografts were given a single intravenous dose of liposomal MMC Prodrugs (MP-3854 or MP-3861), free MMC, or saline and the results are summarized FIGS. 7 and 8 and Table 10 below.\nIn another study, mice bearing HT29 colorectal adenocarcinoma xenografts were given a single intravenous dose of liposomal MMC Prodrug (W-3854) or saline and the results are summarized FIG. 10 and Table 12 below.\nIn a further study, mice bearing HT29 colorectal adenocarcinoma xenografts were given a single intravenous dose of liposomal MMC Prodrug (W-3854) or saline and the results are summarized FIG. 11 and Table 13 below."}, "[4]": {"conditions": "in vivo; cited from earlier work"}, "[5]": {"assay": "Conversion of MMC prodrug to MMC in cysteine solution (HPLC)", "format": "physicochemical", "conditions": "cysteine solution pH 6.95, 37° C., after 2 h"}, "[6]": {"conditions": "Table 10, single IV, 3 mg/kg MMC-eq"}, "[7]": {"conditions": "Table 10, single IV, 5 mg/kg MMC-eq"}, "[8]": {"conditions": "2 h drug incubation, read-out: IC50"}, "[9]": {"conditions": "24 h drug incubation, read-out: IC50"}, "[10]": {"conditions": "72 h drug incubation, read-out: IC50"}}, "note": "pIC50: −log10 of the molar value. Where two headings read alike, the source gives them in different places."}
{"smiles": "CO[C@@]12[C@H](COC(N)=O)C3=C(C(=O)C(C)=C(N)C3=O)N1C[C@@H]1N[C@@H]12", "note": "[MMC, Mitomycin C]", "values": [{"measurement": "pIC50", "setting": "[1]; Homo sapiens, HT-29, 2 h", "value": 5.74}, {"measurement": "pIC50", "setting": "[1]; Homo sapiens, HT-29, 24 h", "value": 6.76}, {"measurement": "pIC50", "setting": "[1]; Homo sapiens, HT-29, 48 h", "value": 6.96}, {"measurement": "pIC50", "setting": "[1]; Homo sapiens, HT-29, 72 h", "value": 6.70}, {"measurement": "Half-Life", "setting": "[2]; Mitomycin C in plasma after high dose of MP-3854 (25 mg/kg MMC-eq)", "value": "LLD"}, {"measurement": "Half-Life", "setting": "[2]; Mitomycin C in plasma after low dose of MP-3854 (5 mg/kg MMC-eq)", "value": "LLD"}, {"measurement": "% T/C", "setting": "A549 NSCLC xenografts", "value": 90, "unit": "%"}, {"measurement": "Median Survival", "setting": "A549 NSCLC xenografts", "value": 76, "unit": "days"}, {"measurement": "TGD (1000 mm3 Days)", "setting": "A549 NSCLC xenografts", "value": 32, "unit": "days"}, {"measurement": "% T/C", "setting": "[3]; Table 9, 2 mpk q7d x3", "value": 72, "unit": "%"}, {"measurement": "% T/C", "setting": "[3]; Table 9, 3 mpk q7d x3", "value": 13, "unit": "%"}, {"measurement": "% T/C", "setting": "[3]; Table 9, 5 mpk q7d x3", "value": 5, "unit": "%"}, {"measurement": "% T/C", "setting": "[3]; Table 9, 5 mpk single", "value": 77, "unit": "%"}, {"measurement": "% T/C", "setting": "[3]; [6]", "value": 83, "unit": "%"}, {"measurement": "Median Survival", "setting": "[3]; [6]", "value": 48, "unit": "days"}, {"measurement": "TGD (1000 mm3 Days)", "setting": "[3]; [6]", "value": 5.2, "unit": "days"}, {"measurement": "% T/C", "setting": "[3]; [7]", "value": 48, "unit": "%"}, {"measurement": "Median Survival", "setting": "[3]; [7]", "value": 54, "unit": "days"}, {"measurement": "TGD (1000 mm3 Days)", "setting": "[3]; [7]", "value": 9.5, "unit": "days"}, {"measurement": "half-life alpha", "setting": "[4]", "value": 8, "unit": "min"}, {"measurement": "half-life terminal", "setting": "[4]", "value": 48, "unit": "min"}]}
{"smiles": "CO[C@@]12[C@H](COC(N)=O)C3=C(C(=O)C(C)=C(N)C3=O)N1C[C@H]1[C@@H]2N1C(=O)OCCSSCCN1CCCCC1", "note": "[MP-3827]", "values": [{"measurement": "pIC50", "setting": "[1]; [8]", "value": 5.23}, {"measurement": "pIC50", "setting": "[1]; [9]", "value": 5.58}, {"measurement": "pIC50", "setting": "[1]; 48 h drug incubation, read-out: IC50", "value": 5.77}, {"measurement": "pIC50", "setting": "[1]; [10]", "value": 5.89}]}
{"smiles": "CO[C@@]12[C@H](COC(N)=O)C3=C(C(=O)C(C)=C(N)C3=O)N1C[C@H]1[C@@H]2N1C(=O)OCc1ccc(SSCCN2CCCCC2)cc1", "note": "[MP-3832, 4-((2-(piperidin-1-yl)ethyl)disulfanyl)benzyl(1aS,8S,8aR,8bS)-6-amino-8-((carbamoyloxy)methyl)-8a-methoxy-5-methyl-4,7-dioxo-1a,4,7,8,8a,8b-hexahydroazirino[2′,3′:3,4]pyrrolo[1,2-α]indole-1(2H)-carboxylate]", "values": [{"measurement": "pIC50", "setting": "[1]; [8]", "value": 5.33}, {"measurement": "pIC50", "setting": "[1]; [9]", "value": 5.84}, {"measurement": "pIC50", "setting": "[1]; [10]", "value": 5.77}]}
{"smiles": "CO[C@@]12[C@H](COC(N)=O)C3=C(C(=O)C(C)=C(N)C3=O)N1C[C@H]1[C@@H]2N1C(=O)OCCSSCCN1CCN(C)CC1", "note": "[MP-3854, 2-((2-(4-methylpiperazin-1-yl)ethyl)disulfanyl)ethyl (1aS,8S,8aR,8bS)-6-amino-8-((carbamoyloxy)methyl)-8a-methoxy-5-methyl-4,7-dioxo-1a,4,7,8,8a,8b-hexahydroazirino[2′,3′:3,4]pyrrolo[1,2-a]indole-1(2H)-carboxylate]", "values": [{"measurement": "pIC50", "setting": "[1]; Homo sapiens, HT-29, 2 h drug incubation, read-out: IC50", "value": 4.38}, {"measurement": "pIC50", "setting": "[1]; Homo sapiens, HT-29, 24 h drug incubation, read-out: IC50", "value": 5.38}, {"measurement": "pIC50", "setting": "[1]; Homo sapiens, HT-29, 72 h drug incubation, read-out: IC50", "value": 5.51}, {"measurement": "conversion of prodrug", "setting": "[5]", "value": "complete conversion"}, {"measurement": "MMC generated", "setting": "[5]; HPLC 360 nm", "value": 92, "unit": "Area %"}]}
